Experimental data published in US20240376085A1 (Janssen Pharmaceutica NV, priority 2021, published 2024).
pIC50: −log10 of the molar value.

Experiments:
[1] = target: T1, IL-17A : IL-17RA binding (Homo sapiens, UniProt Q16552, K93Q); assay: IL-17A(FLAG-tagged):IL-17RA(His-tagged) binding disruption Eu-HTRF assay, Protocol 1; details: FLAG-IL-17A 2.5 nM at 2x final concentration; average if tested more than once
T1 construct: Name: IL-17A-Flag
From the text: An antibody directed against the FLAG tag of IL-17A (SEQ ID NO: 1) is labeled with the HTRF donor chromophore (Europium-cryptate). IL-17A is present as a dimer that is “locked into” this quaternary structure due to the formation of loop-spanning […] disulfide bridges. The construct of IL-17RA used in the assay excludes the […] portion of the receptor and is fused to a C-terminal 10×His tag (SEQ ID NO:2). An antibody directed against the His tag of the IL-17RA chimera is labeled with the HTRF acceptor chromophore (“D2”). The fluorescence-resonance energy transfer (FRET) depends on the vicinity of the donor chromophore to the acceptor, and interruption of the binding between the IL-17A and IL-17RA causes the reduction/loss of FRET. Therefore, this assay allows to evaluate the compound effect on the binding IL-17A and IL-17RA by monitoring the fluorescence intensity of donor vs acceptor. The assay was run using either Protocol 1 or Protocol 2 as described below.
Protocol 1. 40 nl of 2-fold serial diluted compound solution for total 22 dilution points is added into each well of a 1536-well, white, low-volume, non-binding plate (Greiner #782904), then 2 μl of FLAG tagged IL-17A at 2× final concentration (2.5 nM) in solution of PBS+0.01% Triton-X100 is added to each well. The assay plate is briefly centrifuged then incubated for 1 h at rt. A mixed solution is prepared containing 2×5 nM 10HIS×IL-17RA, 2×2.5 nM Eu-anti-FLAG (CISBIO), 2×5 nM D2-anti-HIS (CISBIO) in PBS+0.01% Triton-X100+200 mM Potassium Fluoride (Sigma 60238) and 2 μl of mix is added to each well of the assay plate. The plate is briefly centrifuged then incubated for 2 h at rt. The HTRF intensities at the wavelength of donor (620 nm) and acceptor (665 nm) are measured using BMG Pherastar. The ratio between intensities at two wavelengths is calculated and plotted against the compound concentration and the data is fitted to a one-site competition model to yield IC50 of the compound.

[2] = test system: IL-17A-induced G-CSF production in human normal keratinocyte (NHK); assay: NHK assay: IL-17A-induced G-CSF production in normal human keratinocytes; type: cell-based; details: 24 h, IL-17A 5 ng/mL, average if tested more than once
Experimental: IL-17A acts directly on keratinocytes through binding to dimeric receptor IL-17RA/RC and drives the production of a number of inflammatory mediators known to be elevated in psoriasis lesional tissue. IL-17A small molecule inhibitors that block the IL-17A to interact with IL-17R would inhibit the IL-17A signaling in its targeted cells such as keratinocytes. The compound functional activity is evaluated for its impact on IL-17A-induced G-CSF production in human normal keratinocyte (NHK).
Adult normal human keratinocytes are cultured in keratinocyte growth medium (Lonza) in a flask till reaching ˜90% confluence, then cells are transferred to a 384-well plate at density of 3000-4000 cell/well. Recombinant human IL-17A (Gibco PHC9174) is pre-incubated with titrated compound or DMSO for 1 h at rt then added to the cell culture plate. The final concentration of IL-17A is 5 ng/mL and DMSO is 0.2%, in the culture containing 5% FBS. Cells are cultured/treated for 24 h at 37° C. Supernatants are collected and G-CSF production is measured through HTRF technology using Human G-CSF Kit (CisBio). G-CSF concentration was extrapolated from the standard curve and IC50 is determined using GraphPad Prism. Cell viability is also evaluated using CellTiter-Glo kit (Promega) and effect of compound on cell viability is compared to DMSO control.

T1 sequence (Q16552 with tags, fused parts or gaps K93Q): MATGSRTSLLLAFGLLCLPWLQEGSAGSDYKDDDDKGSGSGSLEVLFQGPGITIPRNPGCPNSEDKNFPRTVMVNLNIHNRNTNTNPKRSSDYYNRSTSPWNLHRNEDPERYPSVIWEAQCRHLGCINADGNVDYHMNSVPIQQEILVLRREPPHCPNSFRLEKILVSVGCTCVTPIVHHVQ

| SMILES | pIC50 [1] | pIC50 ([2]; Homo sapiens, Keratinocyte) | pIC50 [2] |
| --- | --- | --- | --- |
| Cn1nccc1C(=O)N[C@H](c1nc2cc(C(NC(=O)CCC(F)(F)F)C3CCC3)ccc2[nH]1)C1CCC(F)(F)CC1 (single isomer, unassigned) [Example 42, N—((S)-(5-((S*)-Cyclobutyl(4,4,4-trifluorobutanamido)methyl)-1H-benzo[d]imidazol-2-yl)(4,4-difluorocyclohexyl)methyl)-1-methyl-1H-pyrazole-5-carboxamide] | < 7.00 | > 7.30 |  |
| Cn1nccc1C(=O)N[C@H](c1nc2cc(C(NC(=O)CCC(F)(F)F)C3CCC3)ccc2[nH]1)C1CCC(F)(F)CC1 (single isomer, unassigned) [Example 43, N—((S)-(5-((R*)-Cyclobutyl(4,4,4-trifluorobutanamido)methyl)-1H-benzo[d]imidazol-2-yl)(4,4-difluorocyclohexyl)methyl)-1-methyl-1H-pyrazole-5-carboxamide] | < 7.00 |  | < 7.00 |
| CC(C)C(NC(=O)CCC(F)(F)F)c1ccc2[nH]c([C@@H](NC(=O)c3ccnn3C)C3CCC(F)(F)CC3)nc2c1 (single isomer, unassigned) [Example 44, N—((S)-(4,4-Difluorocyclohexyl)(5-((S*)-2-methyl-1-(4,4,4-trifluorobutanamido)propyl)-1H-benzo[d]imidazol-2-yl)methyl)-1-methyl-1H-pyrazole-5-carboxamide] | < 7.00 | < 7.00 |  |
| CC(C)C(NC(=O)CCC(F)(F)F)c1ccc2[nH]c([C@@H](NC(=O)c3ccnn3C)C3CCC(F)(F)CC3)nc2c1 (single isomer, unassigned) [Example 45, N—((S)-(4,4-Difluorocyclohexyl)(5-((R*)-2-methyl-1-(4,4,4-trifluorobutanamido)propyl)-1H-benzo[d]imidazol-2-yl)methyl)-1-methyl-1H-pyrazole-5-carboxamide] | < 7.00 |  | 7.00 to 7.30 |
| Cn1nccc1C(=O)N[C@H](c1nc2cc(C(CC3CCC3)NC(=O)CCC(F)(F)F)ccc2[nH]1)C1CCC(F)(F)CC1 (single isomer, unassigned) [Example 46, N—((S)-(5-((S*)-2-Cyclobutyl-1-(4,4,4-trifluorobutanamido)ethyl)-1H-benzo[d]imidazol-2-yl)(4,4-difluorocyclohexyl)methyl)-1-methyl-1H-pyrazole-5-carboxamide] | < 7.00 | < 7.00 |  |
| Cn1nccc1C(=O)N[C@H](c1nc2cc(C(CC3CCC3)NC(=O)CCC(F)(F)F)ccc2[nH]1)C1CCC(F)(F)CC1 (single isomer, unassigned) [Example 47, N—((S)-(5-((R*)-2-Cyclobutyl-1-(4,4,4-trifluorobutanamido)ethyl)-1H-benzo[d]imidazol-2-yl)(4,4-difluorocyclohexyl)methyl)-1-methyl-1H-pyrazole-5-carboxamide] | < 7.00 |  | > 7.30 |
| CC(C)CC(NC(=O)CCC(F)(F)F)c1ccc2[nH]c([C@@H](NC(=O)c3ccnn3C)C3CCC(F)(F)CC3)nc2c1 (single isomer, unassigned) [Example 48, N—((S)-(4,4-Difluorocyclohexyl)(5-((S*)-3-methyl-1-(4,4,4-trifluorobutanamido)butyl)-1H-benzo[d]imidazol-2-yl)methyl)-1-methyl-1H-pyrazole-5-carboxamide] | < 7.00 | < 7.00 |  |
| CC(C)CC(NC(=O)CCC(F)(F)F)c1ccc2[nH]c([C@@H](NC(=O)c3ccnn3C)C3CCC(F)(F)CC3)nc2c1 (single isomer, unassigned) [Example 49, N—((S)-(4,4-Difluorocyclohexyl)(5-((R*)-3-methyl-1-(4,4,4-trifluorobutanamido)butyl)-1H-benzo[d]imidazol-2-yl)methyl)-1-methyl-1H-pyrazole-5-carboxamide] | < 7.00 |  | > 7.30 |
| CCCC(NC(=O)CCC(F)(F)F)c1ccc2[nH]c([C@@H](NC(=O)c3ccnn3C)C3CCC(F)(F)CC3)nc2c1 (single isomer, unassigned) [Example 50, N—((S)-(4,4-Difluorocyclohexyl)(5-((S*)-1-(4,4,4-trifluorobutanamido)butyl)-1H-benzo[d]imidazol-2-yl)methyl)-1-methyl-1H-pyrazole-5-carboxamide] | < 7.00 | < 7.00 |  |

Continued, in another order:

| pIC50 [1] | SMILES | pIC50 ([2]; Homo sapiens, Keratinocyte) | pIC50 [2] |
| --- | --- | --- | --- |
| 7.00 to 7.30 | Cc1nonc1C(=O)N[C@H](c1nc2ccc([C@H](NC(=O)CC3CC(F)(F)C3)C3CC3)cc2[nH]1)[C@@H]1CCCCO1 (relative stereo) [Example 248, N—((R*)-(6-((R)-Cyclopropyl(2-(3,3-difluorocyclobutyl)acetamido)methyl)-1H-benzo[d]imidazol-2-yl)((S*)-tetrahydro-2H-pyran-2-yl)methyl)-4-methyl-1,2,5-oxadiazole-3-carboxamide] | < 7.00 |  |
| < 7.00 | Cc1nonc1C(=O)N[C@@H](c1nc2ccc([C@H](NC(=O)CC3CC(F)(F)C3)C3CC3)cc2[nH]1)[C@@H]1CCCCO1 (relative stereo) [Example 249, N—((S*)-(6-((R)-Cyclopropyl(2-(3,3-difluorocyclobutyl)acetamido)methyl)-1H-benzo[d]imidazol-2-yl)((S*)-tetrahydro-2H-pyran-2-yl)methyl)-4-methyl-1,2,5-oxadiazole-3-carboxamide] | < 7.00 |  |
| 7.00 to 7.30 | CC(C)n1nccc1C(=O)N[C@H](c1nc2ccc([C@H](NC(=O)CC3CC(F)(F)C3)C3CC3)cc2[nH]1)[C@@H]1CCCCO1 (relative stereo) [Example 250, N—((R*)-(6-((R)-Cyclopropyl(2-(3,3-difluorocyclobutyl)acetamido)methyl)-1H-benzo[d]imidazol-2-yl)((S*)-tetrahydro-2H-pyran-2-yl)methyl)-1-isopropyl-1H-pyrazole-5-carboxamide] | 7.00 to 7.30 |  |
| < 7.00 | CC(C)n1nccc1C(=O)N[C@@H](c1nc2ccc([C@H](NC(=O)CC3CC(F)(F)C3)C3CC3)cc2[nH]1)[C@@H]1CCCCO1 (relative stereo) [Example 251, N—((S*)-(6-((R)-Cyclopropyl(2-(3,3-difluorocyclobutyl)acetamido)methyl)-1H-benzo[d]imidazol-2-yl)((S*)-tetrahydro-2H-pyran-2-yl)methyl)-1-isopropyl-1H-pyrazole-5-carboxamide] | < 7.00 |  |
| < 7.00 | CCCC(NC(=O)CCC(F)(F)F)c1ccc2[nH]c([C@@H](NC(=O)c3ccnn3C)C3CCC(F)(F)CC3)nc2c1 (single isomer, unassigned) [Example 51, N—((S)-(4,4-Difluorocyclohexyl)(5-((R*)-1-(4,4,4-trifluorobutanamido)butyl)-1H-benzo[d]imidazol-2-yl)methyl)-1-methyl-1H-pyrazole-5-carboxamide] |  | 7.00 to 7.30 |
| < 7.00 | CCC(NC(=O)CCC(F)(F)F)c1ccc2[nH]c([C@@H](NC(=O)c3ccnn3C)C3CCC(F)(F)CC3)nc2c1 (single isomer, unassigned) [Example 52, N—((S)-(4,4-Difluorocyclohexyl)(5-((S*)-1-(4,4,4-trifluorobutanamido)propyl)-1H-benzo[d]imidazol-2-yl)methyl)-1-methyl-1H-pyrazole-5-carboxamide] | < 7.00 |  |
| < 7.00 | CCC(NC(=O)CCC(F)(F)F)c1ccc2[nH]c([C@@H](NC(=O)c3ccnn3C)C3CCC(F)(F)CC3)nc2c1 (single isomer, unassigned) [Example 53, N—((S)-(4,4-Difluorocyclohexyl)(5-((R*)-1-(4,4,4-trifluorobutanamido)propyl)-1H-benzo[d]imidazol-2-yl)methyl)-1-methyl-1H-pyrazole-5-carboxamide] |  | 7.00 to 7.30 |
